Patent US20040029965A1, “Formulations for reducing or eliminating toxicity of enviromental hormones containing ursodeoxycholic acid” (priority 2000, published 2004)

Tested on: Ovariectomized female B6C3F1 mice
Assay: Uterus weight changes by bisphenol A (uterine proliferation)
Type: in vivo
Procedure: Ovariectomized female B6C3F1 mice of 5 weeks old, the average weight of which was 18 to 22 g and had been bred in CRJ, were purchased. They were acclimated under the constant breeding conditions, i.e. the constant temperature of 24±1° C., the humidity of 60±10% and the light and darkness cycle of 12 hours, for one week and then, utilized in the experiment. The animals were supplied with solid feed purchased from Purina and supplied with water ad libitum. After acclimation, test materials dissolved in corn oil were subcutaneously injected once a day for 4 days. The test materials used herein, stock solutions of bisphenol A and UDCA were prepared using ethanol. 2 mg of bisphenol A dissolved in 0.2 ml of corn oil was administered to the mice alone or in combination with UDCA once a day. The administration dose of UDCA was 0.2 or 2.0 mg, and corn oil was administered to the solvent control.
The results are expressed as Mean±Standard Deviation values. ANOVA was performed to evaluate the mean distribution of administered groups. In case that the significance was recognized in ANOVA, the Student's t-test was carried out in the levels of p<0.05 and p<0.01.

In the case of `CC(C)(c1ccc(O)cc1)c1ccc(O)cc1` [Bisphenol A, bisphenol A], the “increase of the weight of uterus” value (2 mg of bisphenol A once a day, versus corn oil control) is reported as “about two-fold increased” and the “Mean weight of uterus ± SD” value (Bisphenol A 2 mg/day s.c. for 4 days, alone) is reported as 13.5 ± 1.75.
